ChEMBL document CHEMBL1201862, “PubChem BioAssay data set” (2004)
Active and inactive are the calls of the source.

Columns and labels:
[1] = biological target: T1, Sentrin-specific protease 1 (Homo sapiens, UniProt Q9P0U3); assay: SENP1 catalytic domain blockers, concentration series – biochemical, kinetic FRET, dose response (AID 651697); type: functional; settings: read-out: IC50_Mean
Large T antigen = Large T antigen (Simian virus 40, UniProt P03070); type: functional, Betapolyomavirus macacae;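 also: Confirmatory-stage PubChem screen for compounds that inhibit SV40 T antigen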
[2] = biological target: T1, Sentrin-specific protease 1; assay: Dose response confirmation of small molecule inhibitors of the catalytic domain of the SUMO protease, SENP1 in a FRET assay.; type: functional; settings: read-out: IC50_Mean
[3] = biological target: T2, Sentrin-specific protease 8 (Homo sapiens, UniProt Q96LD8); type: functional
T2 sequence (Q96LD8 whole entry): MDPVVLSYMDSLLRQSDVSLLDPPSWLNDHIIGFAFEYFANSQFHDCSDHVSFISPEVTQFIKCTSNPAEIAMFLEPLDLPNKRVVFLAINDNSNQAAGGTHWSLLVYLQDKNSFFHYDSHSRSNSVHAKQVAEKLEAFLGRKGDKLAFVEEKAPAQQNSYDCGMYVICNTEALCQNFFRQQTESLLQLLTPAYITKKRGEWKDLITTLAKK

[4] = biological target: T2, Sentrin-specific protease 8; type: functional; remark: listed apart in the source
Caspase-3 = biological target: T3, Caspase-3 (Homo sapiens, UniProt P42574); assay: Dose-response confirmation of uHTS inhibitor hits of Sentrin-Specific Protease 8 in a Caspase-3 Fluorescence assay.; type: functional
T3 sequence (P42574 whole entry): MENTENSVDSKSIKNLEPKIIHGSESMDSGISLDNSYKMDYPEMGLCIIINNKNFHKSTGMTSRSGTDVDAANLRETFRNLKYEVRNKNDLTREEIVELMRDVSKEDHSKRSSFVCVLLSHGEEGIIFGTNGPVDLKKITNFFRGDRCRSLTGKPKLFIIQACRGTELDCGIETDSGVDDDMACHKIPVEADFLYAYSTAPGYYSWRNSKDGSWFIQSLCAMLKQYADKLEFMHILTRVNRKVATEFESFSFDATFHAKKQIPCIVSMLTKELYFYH

[5] = biological target: T4, Heat shock factor protein 1 (Mus musculus, UniProt P38532); assay: decrease of HSF1-responsive luciferase luminescence – cell-based, NIH3T3, dose retest, confirmation (AID 2382); type: functional;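 also: NIH3T3 fibroblasts with HSF1-driven luciferase reporter stressed by proteasome inhibitor MG132; luminescence from HSF1-driven luciferase expression after 8 hours of MG132 stress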
T4 sequence (P38532 whole entry): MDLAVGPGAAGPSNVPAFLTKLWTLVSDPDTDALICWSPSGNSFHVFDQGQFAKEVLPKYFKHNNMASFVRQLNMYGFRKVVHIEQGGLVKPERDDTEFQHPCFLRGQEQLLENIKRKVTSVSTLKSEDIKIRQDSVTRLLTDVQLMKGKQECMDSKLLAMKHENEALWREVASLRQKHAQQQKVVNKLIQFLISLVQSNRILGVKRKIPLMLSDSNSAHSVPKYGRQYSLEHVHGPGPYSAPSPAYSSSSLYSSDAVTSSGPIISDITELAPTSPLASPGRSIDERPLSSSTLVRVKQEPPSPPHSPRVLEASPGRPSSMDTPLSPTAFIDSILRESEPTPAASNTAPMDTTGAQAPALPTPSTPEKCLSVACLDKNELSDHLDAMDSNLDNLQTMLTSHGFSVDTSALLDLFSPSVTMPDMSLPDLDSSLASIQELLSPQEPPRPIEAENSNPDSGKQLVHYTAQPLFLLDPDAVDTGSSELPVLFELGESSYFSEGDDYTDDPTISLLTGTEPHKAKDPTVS

[6] = reduction of Shn3 3'UTR-driven luciferase in osteoblasts – cell-based, Clone20 osteoblasts, firefly luciferase, cherry-picked, dose response (AID 624132); type: functional;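 also: firefly luciferase luminescence from reporter carrying the Shn3 3'UTR in osteoblasts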
[7] = biological target: T5, Microphthalmia-associated transcription factor (Homo sapiens, UniProt O75030); assay: reducers of TRPM1 reporter luminescence, concentration series – cell-based, SK-MEL-5, cherry-picked, set 3, MITF inhibitor project, dose response (AID 493073); type: functional;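 also: SK-MEL-5 melanoma cells with luciferase driven by the MITF target TRPM1 promoter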
T5 sequence (O75030 whole entry): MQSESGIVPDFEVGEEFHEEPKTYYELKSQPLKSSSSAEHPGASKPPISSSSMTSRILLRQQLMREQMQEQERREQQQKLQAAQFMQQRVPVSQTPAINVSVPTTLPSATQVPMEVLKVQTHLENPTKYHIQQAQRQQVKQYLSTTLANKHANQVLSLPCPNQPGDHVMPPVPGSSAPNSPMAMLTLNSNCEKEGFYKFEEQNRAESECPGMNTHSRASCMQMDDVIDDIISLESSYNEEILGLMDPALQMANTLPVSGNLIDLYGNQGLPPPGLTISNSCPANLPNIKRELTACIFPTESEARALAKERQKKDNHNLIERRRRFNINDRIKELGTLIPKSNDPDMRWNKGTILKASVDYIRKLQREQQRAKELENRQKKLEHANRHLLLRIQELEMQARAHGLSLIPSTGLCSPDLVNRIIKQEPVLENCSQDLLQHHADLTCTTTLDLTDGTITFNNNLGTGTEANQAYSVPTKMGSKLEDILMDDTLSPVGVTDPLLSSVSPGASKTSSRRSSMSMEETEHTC

[8] = loss of viability in HepG2 cells – cell-based, CellTiter-Glo, cherry-picked, cytotoxicity control for Shn3 inhibitor project, dose response (AID 624134); type: functional
[9] = toxicity toward HepG2 liver cells – cell-based, plate reader, cherry-pick, antagonist series, cytotoxicity control, dose response (AID 743416); type: functional
[10] = blockers of bursicon-stimulated LGR2 cAMP reporter – cell-based, HEK293, CRE-luciferase reporter, cherry pick, set 2, dose response (AID 743343); type: functional;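 also: transfected cells were stimulated with diluted bursicon conditioned medium after compound addition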
Paired box protein Pax-8 = Paired box protein Pax-8 (Homo sapiens, UniProt Q06710); assay: PAX8 transcriptional activity inhibition in RMG-I – RMG-I cells, luciferase, cherry-pick, dose response (AID 687027); type: functional, cell-based;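 also: luciferase reporter driven by Pax8 target thyroperoxidase promoter measured by SteadyGlo luminescence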
Interleukin-8 [11] = biological target: T6, Interleukin-8 (Homo sapiens, UniProt P10145); assay: Dose Response confirmation of uHTS small molecule hits for cystic fibrosis induced NFkb Inhibitors in a TNFa-induced IL8 counterscreen.; type: functional; settings: read-out: IC50_Mean
[12] = viability loss in HEK293 cells – cell-based, plate reader, cherry-picked samples, cytotoxicity control, dose response (AID 743446); type: functional
[13] = A549 cell cytotoxicity, dose response, cytotoxicity control, plate reader, cherry-pick, antagonist series (AID 743412); type: functional, cell-based
Interleukin-8 [14] = biological target: T6, Interleukin-8; assay: Dose Response confirmation of uHTS small molecule hits for cystic fibrosis induced NFkb Inhibitors in a PAF-induced IL8 counterscreen.; type: functional; settings: read-out: IC50_Mean
[15] = non-specific 3'UTR reporter inhibition in Clone20-Shn3RL – cell-based, Renilla luciferase, cherry-picked, counter-screen for Shn3 inhibitor project, dose response (AID 624133); type: functional
[16] = blockade of melanocortin 4 receptor signaling – cell-based, plate reader, cherry pick, counter-screen for LGR2 antagonist project, dose response (AID 743444); type: functional;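 also: transfected HEK 293 cells stimulated with alpha-MSH peptide; potency of inhibitors of the alpha-MSH evoked signal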
Protein S100-A4 = Protein S100-A4 (Homo sapiens, UniProt P26447); assay: human S100A4 peptide interaction inhibition curves – biochemical, fluorescence polarization, cherry-picked hits, dose response (AID 687001); type: functional
[17] = biological target: Heat shock protein HSP 90-alpha (Homo sapiens, UniProt P07900); type: functional, organism-based
[18] = biological target: T7, Methionyl-tRNA synthetase, putative (Trypanosoma brucei brucei, UniProt Q38C91); type: functional, Trypanosoma brucei brucei strain 927/4 GUTat10.1
[19] = Counterscreen for inhibitors of Trypanosoma brucei methionyl tRNA synthetase (MetRS): Luminescence-based cell-based high throughput dose response assay to identify compounds that are cytotoxic to Jurkat human T lymphocyte cells.; type: functional
[20] = biological target: T7, Methionyl-tRNA synthetase, putative; type: functional, Trypanosoma brucei brucei strain 927/4 GUTat10.1; remark: listed apart in the source
[21] = biological target: T8, Carboxy-terminal domain RNA polymerase II polypeptide A small phosphatase 1 (Homo sapiens, UniProt Q9GZU7); assay: CTDSP1 inhibitors, concentration-response, biochemical, absorbance readout, ultra-high-throughput screen actives (AID 540297); type: functional
T8 sequence (Q9GZU7 whole entry): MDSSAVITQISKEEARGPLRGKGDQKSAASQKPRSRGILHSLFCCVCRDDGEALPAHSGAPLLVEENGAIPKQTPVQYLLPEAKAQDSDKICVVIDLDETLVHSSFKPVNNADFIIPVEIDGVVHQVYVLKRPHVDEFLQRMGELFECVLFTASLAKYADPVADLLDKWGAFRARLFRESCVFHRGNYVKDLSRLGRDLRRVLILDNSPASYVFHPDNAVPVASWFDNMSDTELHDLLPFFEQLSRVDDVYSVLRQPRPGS

[22] = HEK-293T viability loss after treatment – luminescence, T-cell screen hits, cytotoxicity control for TCR NF-kB inhibitor project, dose response (AID 489026); type: functional, cell-based;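 also: cells exposed to compound about 14 hours before the viability readout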
[23] = viability loss in HEK293T cells – cell-based, cherry-picks, cytotoxicity control for HIV Vif inhibitor project, dose response (AID 652208); type: functional

T6 sequence (P10145 whole entry): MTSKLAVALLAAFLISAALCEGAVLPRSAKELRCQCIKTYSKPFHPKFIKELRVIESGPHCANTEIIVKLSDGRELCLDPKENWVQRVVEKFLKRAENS
Sequence of Paired box protein Pax-8 (Q06710 whole entry): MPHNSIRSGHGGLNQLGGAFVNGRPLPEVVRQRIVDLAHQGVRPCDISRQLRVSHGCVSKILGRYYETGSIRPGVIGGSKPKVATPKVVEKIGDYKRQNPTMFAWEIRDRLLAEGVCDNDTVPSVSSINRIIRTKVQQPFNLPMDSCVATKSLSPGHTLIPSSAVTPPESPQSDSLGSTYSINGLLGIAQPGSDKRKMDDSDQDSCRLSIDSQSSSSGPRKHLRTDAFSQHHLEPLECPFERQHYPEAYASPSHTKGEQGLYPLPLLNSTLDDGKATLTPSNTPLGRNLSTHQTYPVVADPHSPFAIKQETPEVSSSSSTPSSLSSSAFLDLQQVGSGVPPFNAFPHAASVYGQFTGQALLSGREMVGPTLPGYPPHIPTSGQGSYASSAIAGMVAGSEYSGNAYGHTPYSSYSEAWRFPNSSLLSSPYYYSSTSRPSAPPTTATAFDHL
T7 sequence (Q38C91 whole entry): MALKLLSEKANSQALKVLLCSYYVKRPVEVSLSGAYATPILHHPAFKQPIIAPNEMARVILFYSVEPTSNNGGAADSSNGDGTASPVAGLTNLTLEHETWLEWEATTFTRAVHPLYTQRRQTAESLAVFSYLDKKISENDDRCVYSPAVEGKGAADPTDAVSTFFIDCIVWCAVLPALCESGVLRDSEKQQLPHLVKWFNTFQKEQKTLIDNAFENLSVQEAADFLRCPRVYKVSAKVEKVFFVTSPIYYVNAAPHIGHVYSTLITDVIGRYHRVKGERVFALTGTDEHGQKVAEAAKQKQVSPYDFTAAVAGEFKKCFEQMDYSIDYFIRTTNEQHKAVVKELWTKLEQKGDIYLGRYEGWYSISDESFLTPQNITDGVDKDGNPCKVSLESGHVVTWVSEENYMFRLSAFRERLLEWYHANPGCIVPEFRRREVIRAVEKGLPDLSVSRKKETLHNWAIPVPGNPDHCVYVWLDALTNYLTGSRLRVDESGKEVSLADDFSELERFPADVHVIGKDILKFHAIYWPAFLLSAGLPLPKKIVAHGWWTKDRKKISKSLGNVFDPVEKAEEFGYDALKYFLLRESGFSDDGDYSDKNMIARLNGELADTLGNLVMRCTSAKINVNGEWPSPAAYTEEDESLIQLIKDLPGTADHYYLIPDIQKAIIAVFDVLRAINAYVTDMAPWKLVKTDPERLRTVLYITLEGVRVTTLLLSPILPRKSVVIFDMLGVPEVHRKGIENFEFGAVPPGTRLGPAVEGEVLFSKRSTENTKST
T1 sequence (Q9P0U3 whole entry, the tested form may be a part): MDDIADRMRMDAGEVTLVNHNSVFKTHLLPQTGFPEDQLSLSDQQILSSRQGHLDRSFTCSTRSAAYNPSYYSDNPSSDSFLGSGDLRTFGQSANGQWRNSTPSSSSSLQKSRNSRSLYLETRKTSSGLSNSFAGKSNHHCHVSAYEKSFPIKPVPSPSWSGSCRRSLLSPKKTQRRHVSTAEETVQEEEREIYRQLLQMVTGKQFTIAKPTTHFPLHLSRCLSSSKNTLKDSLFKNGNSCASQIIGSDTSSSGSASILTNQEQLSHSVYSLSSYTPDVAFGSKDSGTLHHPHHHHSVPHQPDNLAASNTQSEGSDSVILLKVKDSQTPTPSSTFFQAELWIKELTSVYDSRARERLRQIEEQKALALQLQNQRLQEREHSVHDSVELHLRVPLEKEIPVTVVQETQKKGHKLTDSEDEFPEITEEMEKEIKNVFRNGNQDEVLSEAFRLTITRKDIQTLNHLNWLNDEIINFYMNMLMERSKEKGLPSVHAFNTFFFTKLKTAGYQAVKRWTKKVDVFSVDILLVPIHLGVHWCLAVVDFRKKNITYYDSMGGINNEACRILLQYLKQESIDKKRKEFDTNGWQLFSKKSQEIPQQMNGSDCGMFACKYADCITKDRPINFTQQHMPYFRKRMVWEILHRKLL
Sequence of Large T antigen (P03070 whole entry, the tested form may be a part): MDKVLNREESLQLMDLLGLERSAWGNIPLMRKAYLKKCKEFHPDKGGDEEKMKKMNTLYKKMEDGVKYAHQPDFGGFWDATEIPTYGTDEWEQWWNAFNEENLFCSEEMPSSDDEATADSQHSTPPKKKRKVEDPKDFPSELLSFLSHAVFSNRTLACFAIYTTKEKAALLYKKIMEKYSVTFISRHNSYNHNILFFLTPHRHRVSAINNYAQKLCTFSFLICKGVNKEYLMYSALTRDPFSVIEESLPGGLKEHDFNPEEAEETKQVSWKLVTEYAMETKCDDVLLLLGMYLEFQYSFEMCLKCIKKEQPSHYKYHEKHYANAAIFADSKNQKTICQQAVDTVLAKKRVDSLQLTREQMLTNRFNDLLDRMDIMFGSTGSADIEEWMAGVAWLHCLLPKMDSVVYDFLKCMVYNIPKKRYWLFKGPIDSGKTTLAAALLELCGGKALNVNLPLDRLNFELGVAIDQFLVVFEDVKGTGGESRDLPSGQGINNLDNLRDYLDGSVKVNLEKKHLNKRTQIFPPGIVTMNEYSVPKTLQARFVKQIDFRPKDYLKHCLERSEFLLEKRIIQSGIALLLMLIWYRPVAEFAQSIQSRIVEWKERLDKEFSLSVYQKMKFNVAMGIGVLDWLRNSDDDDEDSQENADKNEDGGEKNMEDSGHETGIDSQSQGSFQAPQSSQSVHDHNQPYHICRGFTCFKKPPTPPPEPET
Sequence of Protein S100-A4 (P26447 whole entry): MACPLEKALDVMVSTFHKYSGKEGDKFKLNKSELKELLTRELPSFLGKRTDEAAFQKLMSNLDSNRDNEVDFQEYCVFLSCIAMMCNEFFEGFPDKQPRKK

COc1cc(SC#N)ccc1/N=C/c1c(C)[nH]n(-c2ccc(C)cc2C)c1=O
IC50 [1]: 24.8 µM (inactive) | IC50 (Large T antigen): 7.19 µM (active) | IC50 [2]: 15 µM (active)

COc1cccc(-c2cc(C(=O)N3CCc4ccccc4C3)no2)c1
IC50 [3]: 7.7 µM (active) | IC50 [4]: 46 µM (active) | IC50 (Caspase-3): 32 µM (active)

O=C(c1nnsc1S(=O)(=O)c1ccc(Cl)cc1)N1CCOCC1
EC50 [5]: > 195 µM (not active) | AC50 [6]: 7.74 µM (active) | AC50 [7]: 9.51 µM (active) | AC50 [8]: 31.7 µM (active) | AC50 [9]: 15.3 µM (active) | AC50 [10]: 4.76 µM (active) | AC50 (Paired box protein Pax-8): 6.05 µM (active) | IC50 (Interleukin-8 [11]): 1.19 µM (active) | AC50 [12]: 15.3 µM (active) | AC50 [13]: 13.9 µM (active) | IC50 (Interleukin-8 [14]): 1.25 µM (active) | AC50 [15]: 12.2 µM (active) | AC50 [16]: 5.75 µM (active)

COc1cccc2c1C(=O)c1c(O)c3c(c(O)c1C2=O)CC(O)(C(=O)CO)CC3OC1CC(N(C)C)C(O)C(C)O1 (stereo not drawn)
AC50 (Paired box protein Pax-8): 0.833 µM (active) | AC50 (Protein S100-A4): 0.257 µM (active) | AC50 [17]: 0.296 µM (active)

COc1ccc(CNC(=O)CSc2n[nH]c3c4cc(OC)ccc4nc-3n2)cc1
IC50 [18]: 71.6 µM (inactive) | IC50 [19]: 83.3 µM (inactive) | IC50 [20]: 76.2 µM (inactive) | IC50 [21]: 8.05 µM (active)

CCCOCCOC(=O)c1[nH]c2c(c1C)C(=O)CC(c1cc(OC)ccc1OC)C2 (stereo not drawn)
IC50 [22]: > 80 µM (inactive) | AC50 [23]: > 52 µM (inactive)
